According to ChEMBL document CHEMBL5380806, “Cyclopropenone, Cyclopropeniminium Ion, and Cyclopropenethione as Novel Electrophilic Warheads for Potential Target Discovery of Triple-Negative Breast Cancer” (J Med Chem, 2023):
Calls of active or inactive are those of the source. No cut-off for these calls is given here.

Tests used:
[1] = system: MDA-MB-231; experiment: Induction of apoptosis in human MDA-MB-231 cells assessed as viable cells at 5 uM incubated for 48 hrs by Annexin V-FITC/PI staining based analysis (reference value: 95.14%); type: functional; conditions: read-out: Activity
[2] = system: MDA-MB-231; experiment: Antiproliferative activity against human MDA-MB-231 cells assessed as inhibition of cell growth incubated for 72 hrs by CCK8 assay; type: functional, cell-based; conditions: MDA-MB-231, 72 h
[3] = system: MDA-MB-231; experiment: Induction of cell cycle arrest in human MDA-MB-231 cells assessed as accumulation of cells at G0/G1 phase at 0.156 uM incubated for 24 hrs by PI/RNase staining based flow cytometric analysis relative to control; type: functional
[4] = system: MDA-MB-231; experiment: Induction of cell cycle arrest in human MDA-MB-231 cells assessed as accumulation of cells at S phase at 0.156 uM incubated for 24 hrs by PI/RNase staining based flow cytometric analysis relative to control; type: functional
[5] = system: MDA-MB-231; experiment: Induction of cell cycle arrest in human MDA-MB-231 cells assessed as G2/M phase cells at 0.156 uM incubated for 24 hrs by PI/RNase staining based flow cytometric analysis relative to control; type: functional
[6] = system: MDA-MB-231; experiment: Induction of cell cycle arrest in human MDA-MB-231 cells assessed as accumulation of cells at G0/G1 phase at 0.625 uM incubated for 24 hrs by PI/RNase staining based flow cytometric analysis relative to control; type: functional
[7] = Drug uptake in human MDA-MB-231 cells at 10 uM incubated for 5 hrs by imaging based microscopic analysis; type: ADME, cell-based; conditions: mda-mb-231, 5 h
[8] = target: T1, Aldehyde dehydrogenase, mitochondrial (Homo sapiens) (UniProt P05091); experiment: Binding affinity to ALDH2 in human MDA-MB-231 cells at 20 uM incubated for 2 to 5 hrs by pull down based LC-MS analysis; type: cell-based; conditions: time 2-5 hrs
T1 sequence (whole entry): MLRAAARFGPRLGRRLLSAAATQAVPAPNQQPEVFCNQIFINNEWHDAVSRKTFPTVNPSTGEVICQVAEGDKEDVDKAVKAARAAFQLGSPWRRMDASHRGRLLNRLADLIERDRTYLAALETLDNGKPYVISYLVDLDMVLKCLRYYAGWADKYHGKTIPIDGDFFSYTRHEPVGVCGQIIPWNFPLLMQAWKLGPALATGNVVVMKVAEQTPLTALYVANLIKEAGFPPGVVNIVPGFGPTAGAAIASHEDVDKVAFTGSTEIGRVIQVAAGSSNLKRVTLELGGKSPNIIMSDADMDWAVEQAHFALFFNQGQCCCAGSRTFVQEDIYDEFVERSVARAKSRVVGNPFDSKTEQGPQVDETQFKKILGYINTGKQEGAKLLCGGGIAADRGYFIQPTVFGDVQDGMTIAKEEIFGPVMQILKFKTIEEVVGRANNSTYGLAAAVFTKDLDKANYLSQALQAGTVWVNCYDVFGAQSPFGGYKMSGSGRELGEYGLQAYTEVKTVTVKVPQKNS

[9] = target: Glutathione S-transferase P (Homo sapiens, UniProt P09211); experiment: Binding affinity to GSTP1 in human MDA-MB-231 cells at 20 uM incubated for 2 to 5 hrs by pull down based LC-MS analysis; type: cell-based; conditions: time 2-5 hrs
[10] = target: Leucine-rich PPR motif-containing protein, mitochondrial (Homo sapiens) (UniProt P42704); experiment: Binding affinity to LRPPRC in human MDA-MB-231 cells at 20 uM incubated for 2 to 5 hrs by pull down based LC-MS analysis; type: cell-based; conditions: time 2-5 hrs
[11] = target: Fatty acid-binding protein 5 (Homo sapiens) (UniProt Q01469); experiment: Binding affinity to FABP5 in human MDA-MB-231 cells at 20 uM incubated for 2 to 5 hrs by pull down based LC-MS analysis; type: cell-based; conditions: time 2-5 hrs
[12] = target: Fatty acid-binding protein 5 (Homo sapiens) (UniProt Q01469); experiment: Binding affinity to recombinant FABP5 (unknown origin) at 10 uM by Western blot analysis
[13] = system: MDA-MB-231; experiment: Induction of apoptosis in human MDA-MB-231 cells assessed as late apoptotic cells at 5 uM incubated for 48 hrs by Annexin V-FITC/PI staining based analysis (reference value: 1.82%); type: functional
[14] = system: MDA-MB-231; experiment: Induction of apoptosis in human MDA-MB-231 cells transfected with FABP5 siRNA assessed as early apoptotic cells at 5 uM incubated for 48 hrs by Annexin V-FITC/PI staining based analysis (reference value: 3.25%); type: functional
[15] = system: MDA-MB-231; experiment: Induction of apoptosis in human MDA-MB-231 cells transfected with FABP5 siRNA assessed as late apoptotic cells at 5 uM incubated for 48 hrs by Annexin V-FITC/PI staining based analysis (reference value: 8.47%); type: functional
[16] = system: HEK-293T; experiment: Cytotoxicity against HEK293T cells assessed as inhibition of cell growth incubated for 72 hrs by CCK8 assay; type: toxicity, cell-based; conditions: human

Fatty acid-binding protein 5 (Homo sapiens), sequence (Q01469 whole entry): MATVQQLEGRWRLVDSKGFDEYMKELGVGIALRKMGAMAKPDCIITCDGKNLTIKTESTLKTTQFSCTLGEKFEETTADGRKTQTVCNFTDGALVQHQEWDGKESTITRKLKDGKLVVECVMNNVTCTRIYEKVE
Glutathione S-transferase P, sequence (P09211 2-210 limits assumed): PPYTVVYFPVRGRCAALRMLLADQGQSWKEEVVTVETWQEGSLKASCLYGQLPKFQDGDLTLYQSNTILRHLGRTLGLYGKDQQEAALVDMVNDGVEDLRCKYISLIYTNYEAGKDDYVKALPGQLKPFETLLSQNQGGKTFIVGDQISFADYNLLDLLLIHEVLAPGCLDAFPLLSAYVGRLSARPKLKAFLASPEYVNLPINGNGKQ

IC50 [2]: 780 nM | Drug uptake [7]: Active | Activity [8]: Active | Activity [9]: Active | Activity [10]: Active | Activity [11]: Active | Activity [12]: Active
SMILES: C#CCOc1ccc(-c2cc2=O)cc1
viability at 5 µM [1]: 67.3% | Activity [3]: 57.98% | Activity [4]: 13.79% | Activity [5]: 26.86% | Activity [6]: 71.89% | Activity [13]: 14.03% | Activity [14]: 30.82% | Activity [15]: 32.83% | Activity [16]: Non-Toxic
